Experimental data taken from patent publication US9040529B2 (Vichem Chemie Kutató Kft., priority 2009, dated 2015).
Structures can show the parent of a compound that is named as a salt.

Target: T1, human CDK9/CyclinT kinase complex (Homo sapiens, UniProt P50750)
T1 construct: purchased Proqinase 0371-0345-1
Assay: In vitro CDK9/CyclinT assay (IMAP fluorescence polarization kinase assay)
Type: biochemical
Settings: not given
Method: In Vitro CDK9/CyclinT Assay
The activity of the compounds described in the present invention can be determined by the following kinase assay, which measures the phosphorylation of a fluorescently-labeled peptide by human CDK9/CyclinT kinase complex by fluorescent polarization using a commercially available IMAP Screening Express Assay Kit (Molecular devices).
CDK9 kinase assays were performed in low protein binding 384-well plates (Corning 3676). Test compounds were diluted in 100% DMSO to 5 mM stock concentration, then further dilutions were made in H2O or 100% DMSO to desirable concentrations.
Each reaction consisted of 5 nM enzyme: CDK9/CyclinT (Proqinase cat#0371-0345-1), 400 nM TAMRA-Rbtide (synthetic 15-mer peptide derived from human retinoblastoma tumor suppressor protein labelled with TAMRA dye, Genecust Europe), 12 μM ATP (=Kmapp, Sigma-Aldrich) and kinase buffer: 20 mM MOPS pH 7 (Sigma-Aldrich), 1 mM DTT (Sigma-Aldrich), 10 mM MgCl2 (Sigma-Aldrich), 0.01% Tween 20 (Sigma-Aldrich).
For each reaction, 4 or 6 μl containing TAMRA-Rbtide, ATP and kianse buffer were combined with 2 μl diluted compound in H2O or 0.028 μl compound in 100% DMSO. The kinase reaction was started by the addition of 2 μl diluted enzyme. The reaction was allowed to run for 1 hours at room temperature. The reaction was stopped by adding 15 μl IMAP beads (1:400 beads in progressive (100% buffer A) 1× buffer). After an additional 1 hours, fluorescent polarization (Ex: 550-10 nm, Em: 590-10 nm, Dich: 561 nm) was measured using an Analyst GT (Molecular devices).

T1 sequence (P50750 whole entry): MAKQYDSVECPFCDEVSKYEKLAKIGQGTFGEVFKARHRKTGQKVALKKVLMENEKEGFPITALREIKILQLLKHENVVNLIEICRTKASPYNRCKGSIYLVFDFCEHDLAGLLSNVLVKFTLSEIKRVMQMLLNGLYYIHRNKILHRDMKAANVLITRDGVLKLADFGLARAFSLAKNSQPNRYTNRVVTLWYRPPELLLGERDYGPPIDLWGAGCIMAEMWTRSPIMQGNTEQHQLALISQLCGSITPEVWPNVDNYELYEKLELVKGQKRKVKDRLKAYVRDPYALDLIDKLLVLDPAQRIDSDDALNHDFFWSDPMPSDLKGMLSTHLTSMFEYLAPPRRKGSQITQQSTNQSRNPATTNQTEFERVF
T1 sequence (O60563 whole entry partner): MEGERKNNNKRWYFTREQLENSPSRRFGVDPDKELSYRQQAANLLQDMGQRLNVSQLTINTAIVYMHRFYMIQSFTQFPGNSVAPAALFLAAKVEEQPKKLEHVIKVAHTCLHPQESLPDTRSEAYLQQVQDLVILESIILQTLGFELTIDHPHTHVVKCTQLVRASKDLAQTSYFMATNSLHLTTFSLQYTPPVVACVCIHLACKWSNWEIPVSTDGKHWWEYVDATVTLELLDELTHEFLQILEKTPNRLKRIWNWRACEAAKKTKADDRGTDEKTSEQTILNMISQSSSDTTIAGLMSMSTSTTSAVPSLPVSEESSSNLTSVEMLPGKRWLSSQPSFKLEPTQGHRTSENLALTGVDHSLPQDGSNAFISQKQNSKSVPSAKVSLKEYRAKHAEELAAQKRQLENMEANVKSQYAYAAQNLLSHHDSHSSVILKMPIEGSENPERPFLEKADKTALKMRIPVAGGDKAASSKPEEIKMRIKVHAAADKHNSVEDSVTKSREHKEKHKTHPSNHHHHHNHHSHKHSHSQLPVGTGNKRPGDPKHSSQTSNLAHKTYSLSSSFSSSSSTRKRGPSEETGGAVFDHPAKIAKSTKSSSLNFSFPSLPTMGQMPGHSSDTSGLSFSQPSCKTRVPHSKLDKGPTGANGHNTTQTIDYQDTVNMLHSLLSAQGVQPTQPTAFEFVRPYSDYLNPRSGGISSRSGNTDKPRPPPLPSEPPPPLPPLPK

SMILES	CDK9 inhibitory effect
CC(C)Oc1ccccc1-c1cc(Nc2ccc(CNS(C)(=O)=O)cc2)ncn1 [Example 56, N-{4-[6-(2-Isopropoxy-phenyl)-pyrimidin-4-ylamino]-benzyl}-methanesulfonamide]	nanomolar or low nanomolar range
COc1ccccc1-c1cc(Nc2cccc(CN)c2)ncn1 [Example 69, (3-Aminomethyl-phenyl)-[6-(2-methoxy-phenyl)-pyrimidin-4-yl]-amine hydrochloride]	nanomolar or low nanomolar range
COc1ccc(F)cc1-c1cc(Nc2cccc(Cn3cnc4ccccc43)c2)ncn1 [Example 66, (3-Benzoimidazol-1-ylmethyl-phenyl)-[6-(5-fluoro-2-methoxy-phenyl)-pyrimidin-4-yl]-amine]	nanomolar or low nanomolar range
CS(=O)(=O)NCc1ccc(Nc2cc(-c3ccccc3OCc3ccccc3)ncn2)cc1 [Example 35, N-{4-[6-(2-Benzyloxy-phenyl)-pyrimidin-4-ylamino]-benzyl}-methanesulfonamide]	nanomolar or low nanomolar range
CC(C)Oc1cc(F)ccc1-c1cc(Nc2ccc(CNS(C)(=O)=O)cc2)ncn1 [Example 48, N-{4-[6-(4-Fluoro-2-isopropoxy-phenyl)-pyrimidin-4-ylamino]-benzyl}-methanesulfonamide]	nanomolar or low nanomolar range
CCOc1ccccc1-c1cc(Nc2ccc(CNS(C)(=O)=O)cc2)ncn1 [Example 37, N-{4-[6-(2-Ethoxy-phenyl)-pyrimidin-4-ylamino]-benzyl}-methanesulfonamide]	nanomolar or low nanomolar range

Same assay, conditions: 5 nM CDK9/CyclinT, 400 nM TAMRA-Rbtide, 12 μM ATP, 1 hour at room temperature; read-out: CDK9 inhibitory range

SMILES	IC50
Clc1cc(Nc2ccc(Cn3cnc4ccccc43)cc2)ncn1 [Example 86, (4-Benzoimidazol-1-ylmethyl-phenyl)-(6-chloro-pyrimidin-4-yl)-amine]	> 10000 nM
CC(C)Oc1ccccc1-c1cc(Nc2ccc(CNS(C)(=O)=O)cc2)ncn1 [Example 56, N-{4-[6-(2-Isopropoxy-phenyl)-pyrimidin-4-ylamino]-benzyl}-methanesulfonamide]	< 100 nM
COc1ccccc1-c1cc(Nc2cccc(CN)c2)ncn1 [Example 69, (3-Aminomethyl-phenyl)-[6-(2-methoxy-phenyl)-pyrimidin-4-yl]-amine hydrochloride]	< 100 nM
COc1ccccc1-c1cc(Nc2ccc(CNS(C)(=O)=O)cc2)ncn1 [Example 34, N-{4-[6-(2-Methoxy-phenyl)-pyrimidin-4-ylamino]-benzyl}-methanesulfonamide]	< 1000 nM
COc1cccc(-c2cc(Nc3cccc(CNS(C)(=O)=O)c3)ncn2)c1OC [Example 23, N-{3-[6-(2,3-Dimethoxy-phenyl)-pyrimidin-4-ylamino]-benzyl}-methanesulfonamide]	< 1000 nM
CC(C)Oc1cc(F)ccc1-c1cc(Nc2cccc(CNc3nc4ccccc4[nH]3)c2)ncn1 [Example 77, (1H-Benzoimidazol-2-yl)-{3-[6-(4-fluoro-2-isopropoxy-phenyl)-pyrimidin-4-ylamino]-benzyl}-amine]	< 100 nM
COc1ccc(-c2cc(Nc3ccc(CNS(C)(=O)=O)cc3)ncn2)cc1 [Example 57, N-{4-[6-(4-Methoxy-phenyl)-pyrimidin-4-ylamino]-benzyl}-methanesulfonamide]	< 1000 nM
CS(=O)(=O)NCc1cccc(Nc2cc(-c3ccc(F)cc3F)ncn2)c1 [Example 17, N-{3-[6-(2,4-Difluoro-phenyl)-pyrimidin-4-ylamino]-benzyl}-methanesulfonamide]	< 10000 nM
O=C1c2ccccc2C(=O)N1Cc1cccc(Nc2cc(Cl)ncn2)c1 [Example 67, 2-[3-(6-Chloro-pyrimidin-4-ylamino)-benzyl]-isoindole-1,3-dione]	> 10000 nM
CS(=O)(=O)NCc1cccc(Nc2cc(-c3ccccc3OC(F)(F)F)ncn2)c1 [Example 15, N-{3-[6-(2-Trifluoromethoxy-phenyl)-pyrimidin-4-ylamino]-benzyl}-methanesulfonamide]	< 10000 nM
COc1cc(Cl)ccc1-c1cc(Nc2cccc(CNS(C)(=O)=O)c2)ncn1 [Example 25, N-{3-[6-(4-Chloro-2-methoxy-phenyl)-pyrimidin-4-ylamino]-benzyl}-methanesulfonamide]	< 1000 nM
CS(=O)(=O)NCc1ccc(Nc2cc(-c3ccccc3Oc3ccccc3)ncn2)cc1 [Example 40, N-{4-[6-(2-Phenoxy-phenyl)-pyrimidin-4-ylamino]-benzyl}-methanesulfonamide]	< 1000 nM
CS(=O)(=O)NCc1cccc(Nc2cc(-c3cccc(C(N)=O)c3)ncn2)c1 [Example 20, 3-{6-[3-(Methanesulfonylamino-methyl)-phenylamino]-pyrimidin-4-yl}-benzamide]	< 10000 nM
CS(=O)(=O)NCc1ccc(Nc2cc(-c3ccccc3F)ncn2)cc1 [Example 44, N-{4-[6-(2-Fluoro-phenyl)-pyrimidin-4-ylamino]-benzyl}-methanesulfonamide]	< 10000 nM
COc1ccccc1-c1cc(Nc2cccc(CNS(=O)(=O)Cc3ccccc3)c2)ncn1 [Example 74, N-{3-[6-(2-Methoxy-phenyl)-pyrimidin-4-ylamino]-benzyl}-C-phenyl-methanesulfonamide]	< 1000 nM
COc1ccc(F)cc1-c1cc(Nc2cccc(Cn3cnc4ccccc43)c2)ncn1 [Example 66, (3-Benzoimidazol-1-ylmethyl-phenyl)-[6-(5-fluoro-2-methoxy-phenyl)-pyrimidin-4-yl]-amine]	< 100 nM
COc1cccc(-c2cc(Nc3ccc(CNS(C)(=O)=O)cc3)ncn2)c1OC [Example 55, N-{4-[6-(2,3-Dimethoxy-phenyl)-pyrimidin-4-ylamino]-benzyl}-methanesulfonamide]	< 1000 nM
CS(=O)(=O)NCc1cccc(Nc2cc(Cl)ncn2)c1 [Example 1, N-[3-(6-Chloro-pyrimidin-4-ylamino)-benzyl]-methanesulfonamide]	> 10000 nM
CS(=O)(=O)NCc1ccc(Nc2cc(-c3cccc(N)c3)ncn2)cc1 [Example 46, N-{4-[6-(3-Amino-phenyl)-pyrimidin-4-ylamino]-benzyl}-methanesulfonamide hydrochloride]	< 10000 nM
CS(=O)(=O)NCc1ccc(Nc2cc(-c3ccccc3)ncn2)cc1 [Example 45, N-[4-(6-Phenyl-pyrimidin-4-ylamino)-benzyl]-methanesulfonamide]	< 10000 nM
CC(C)Oc1ccccc1-c1cc(Nc2cccc(Cn3cnc4ccccc43)c2)ncn1 [Example 80, (3-Benzoimidazol-1-ylmethyl-phenyl)-[6-(2-isopropoxy-phenyl)-pyrimidin-4-yl]-amine]	< 100 nM
COc1cc(F)ccc1-c1cc(Nc2cccc(CNc3nc4ccccc4[nH]3)c2)ncn1 [Example 61, (1H-Benzoimidazol-2-yl)-{3-[6-(4-fluoro-2-methoxy-phenyl)-pyrimidin-4-ylamino]-benzyl}-amine]	< 1000 nM
CS(=O)(=O)NCc1ccc(Nc2cc(-c3ccccc3OCc3ccccc3)ncn2)cc1 [Example 35, N-{4-[6-(2-Benzyloxy-phenyl)-pyrimidin-4-ylamino]-benzyl}-methanesulfonamide]	< 100 nM
CS(=O)(=O)NCc1cccc(Nc2cc(-c3cn[nH]c3)ncn2)c1 [Example 32, N-{3-[6-(1H-Pyrazol-4-yl)-pyrimidin-4-ylamino]-benzyl}-methanesulfonamide]	< 1000 nM
CS(=O)(=O)NCc1cccc(Nc2cc(-c3ccc(O)cc3)ncn2)c1 [Example 75, N-{3-[6-(4-Hydroxy-phenyl)-pyrimidin-4-ylamino]-benzyl}-methanesulfonamide]	< 100 nM
CC(C)Oc1cc(F)ccc1-c1cc(Nc2ccc(CNS(C)(=O)=O)cc2)ncn1 [Example 48, N-{4-[6-(4-Fluoro-2-isopropoxy-phenyl)-pyrimidin-4-ylamino]-benzyl}-methanesulfonamide]	< 100 nM
CCOc1ccccc1-c1cc(Nc2ccc(CNS(C)(=O)=O)cc2)ncn1 [Example 37, N-{4-[6-(2-Ethoxy-phenyl)-pyrimidin-4-ylamino]-benzyl}-methanesulfonamide]	< 100 nM
Clc1cc(Nc2cccc(Cn3cnc4ccccc43)c2)ncn1 [Example 63, (3-Benzoimidazol-1-ylmethyl-phenyl)-(6-chloro-pyrimidin-4-yl)-amine]	< 10000 nM
COc1ccccc1-c1cc(Nc2cccc(Cn3c(CN4CCOCC4)nc4ccccc43)c2)ncn1 [Example 93, [6-(2-Methoxy-phenyl)-pyrimidin-4-yl]-[3-(2-morpholin-4-ylmethyl-benzoimidazol-1-ylmethyl)-phenyl]-amine]	< 10000 nM
CS(=O)(=O)NCc1cccc(Nc2cc(-c3cccc4c3OCO4)ncn2)c1 [Example 27, N-[3-(6-Benzo[1,3]dioxol-4-yl-pyrimidin-4-ylamino)-benzyl]-methanesulfonamide]	< 1000 nM
